In patent US11168073B2, “3,3-difluoroallylamines or salts thereof and pharmaceutical compositions comprising the same” (YUHAN CORPORATION, priority 2018, dated 2021):
Structures can show the parent of a compound that is named as a salt.

Legend:
Assay type in all cases: biochemical
recombinant human VAP-1 = molecular target: T1, recombinant human VAP-1 (Homo sapiens, UniProt Q16853); experiment: Activity evaluation on recombinant human VAP-1 (Amplex Red/HRP-coupled hydrogen peroxide assay, benzylamine substrate); conditions: recombinant human VAP-1; 30 min preincubation at 37° C.; 1 mM benzylamine; read-out: Inhibitory Activity (IC50, nM) human VAP-1
T1 construct: purchased R&D systems
T1 sequence (Q16853 1-763): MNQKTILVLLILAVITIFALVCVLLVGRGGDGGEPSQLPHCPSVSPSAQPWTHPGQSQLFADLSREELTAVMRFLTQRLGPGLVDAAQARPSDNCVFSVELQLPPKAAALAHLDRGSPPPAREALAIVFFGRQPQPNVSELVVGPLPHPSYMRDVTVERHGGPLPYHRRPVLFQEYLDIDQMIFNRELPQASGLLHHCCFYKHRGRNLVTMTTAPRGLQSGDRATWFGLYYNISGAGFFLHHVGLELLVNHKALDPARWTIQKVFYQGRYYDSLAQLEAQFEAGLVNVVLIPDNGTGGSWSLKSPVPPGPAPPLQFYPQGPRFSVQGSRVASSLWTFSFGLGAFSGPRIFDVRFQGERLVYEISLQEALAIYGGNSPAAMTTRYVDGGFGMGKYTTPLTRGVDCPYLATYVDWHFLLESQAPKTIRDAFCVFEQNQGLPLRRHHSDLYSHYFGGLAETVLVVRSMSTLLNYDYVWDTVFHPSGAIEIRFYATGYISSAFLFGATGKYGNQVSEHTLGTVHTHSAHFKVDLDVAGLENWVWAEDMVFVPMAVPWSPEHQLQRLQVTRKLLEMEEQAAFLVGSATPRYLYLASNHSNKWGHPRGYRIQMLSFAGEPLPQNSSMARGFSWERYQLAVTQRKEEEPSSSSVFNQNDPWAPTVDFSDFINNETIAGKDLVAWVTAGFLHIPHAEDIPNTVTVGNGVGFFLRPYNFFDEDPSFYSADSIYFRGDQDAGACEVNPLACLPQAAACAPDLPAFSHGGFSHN
Method in brief: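 Hydrogen peroxide from benzylamine (1 mM) oxidation by human recombinant VAP-1 detected via HRP-coupled Amplex Red (200 uM) fluorescence, kinetic over 1–2 h. Enzyme and compound preincubated 30 min at 37 °C, pH 7.4 phosphate; 8-point dose response, signal-rate decrease versus DMSO control fitted to four-parameter logistic for IC50.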

[1] = molecular target: T2, recombinant human MAO-A (monoamine oxidase-A) (Homo sapiens, UniProt P21397); experiment: Activity evaluation on recombinant human MAO-A (Amplex Red/HRP-coupled assay, 0.5 mM tyramine substrate); conditions: 0.5 mM tyramine, read-out: Inhibitory Activity (IC50, nM) MAO-A
T2 construct: purchased Sigma-Aldrich
T2 sequence (P21397 1-527): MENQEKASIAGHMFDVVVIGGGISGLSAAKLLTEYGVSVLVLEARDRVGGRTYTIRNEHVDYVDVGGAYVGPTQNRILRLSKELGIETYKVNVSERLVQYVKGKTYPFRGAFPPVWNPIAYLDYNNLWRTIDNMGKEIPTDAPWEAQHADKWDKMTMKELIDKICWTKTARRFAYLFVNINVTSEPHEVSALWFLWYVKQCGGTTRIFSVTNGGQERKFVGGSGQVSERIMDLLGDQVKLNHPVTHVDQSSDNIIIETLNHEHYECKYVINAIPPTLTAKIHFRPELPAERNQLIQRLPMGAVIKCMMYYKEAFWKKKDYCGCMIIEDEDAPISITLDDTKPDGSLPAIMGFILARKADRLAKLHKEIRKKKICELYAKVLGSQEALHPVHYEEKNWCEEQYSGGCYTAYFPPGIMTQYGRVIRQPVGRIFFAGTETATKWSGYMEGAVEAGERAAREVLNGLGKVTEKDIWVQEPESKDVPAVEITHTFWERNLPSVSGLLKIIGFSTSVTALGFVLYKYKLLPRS
Method in brief: (§1)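 8-pt 1:3 dilution series, final DMSO <1%; 30 min 37 °C preincubation w/ enzyme, 50 mM Na phosphate pH 7.4; + 200 uM Amplex Red, 1 U/mL HRP, substrate (MAO-A tyramine 0.5 mM; MAO-B benzylamine 1 mM; DAO putrescine 1 mM); fluor. rate 544/590 nm, 1-2 h; 4-param IC50.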

[2] = molecular target: T3, recombinant human MAO-B (monoamine oxidase-B) (Homo sapiens, UniProt P27338); experiment: Activity evaluation on recombinant human MAO-B (Amplex Red/HRP-coupled assay, 1 mM benzylamine substrate); conditions: 1 mM benzylamine, read-out: Inhibitory Activity (IC50, nM) MAO-B
T3 construct: purchased Sigma-Aldrich
T3 sequence (P27338 1-520): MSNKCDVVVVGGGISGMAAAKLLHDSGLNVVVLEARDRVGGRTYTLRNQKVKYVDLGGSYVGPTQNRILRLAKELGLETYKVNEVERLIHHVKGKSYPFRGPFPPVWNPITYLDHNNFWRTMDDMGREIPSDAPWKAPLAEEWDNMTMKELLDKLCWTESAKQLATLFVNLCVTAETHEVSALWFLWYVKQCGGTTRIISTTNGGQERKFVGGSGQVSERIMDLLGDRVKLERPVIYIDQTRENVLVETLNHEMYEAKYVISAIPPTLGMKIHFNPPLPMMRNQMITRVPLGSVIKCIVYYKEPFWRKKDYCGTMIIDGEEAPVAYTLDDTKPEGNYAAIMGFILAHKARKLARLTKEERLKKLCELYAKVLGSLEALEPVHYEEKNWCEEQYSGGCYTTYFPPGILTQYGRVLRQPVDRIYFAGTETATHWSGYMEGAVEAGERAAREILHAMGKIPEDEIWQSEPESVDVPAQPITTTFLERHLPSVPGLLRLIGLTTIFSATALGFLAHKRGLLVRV
Method in brief: as §1

[3] = molecular target: T4, recombinant human DAO (diamine oxidase) (Homo sapiens, UniProt P19801); experiment: Activity evaluation on recombinant human DAO (Amplex Red/HRP-coupled assay, 1 mM putrescine substrate); conditions: 1 mM putrescine, read-out: Inhibitory Activity (IC50, nM) DAO
T4 construct: purchased R&D systems
T4 sequence (P19801 20-751): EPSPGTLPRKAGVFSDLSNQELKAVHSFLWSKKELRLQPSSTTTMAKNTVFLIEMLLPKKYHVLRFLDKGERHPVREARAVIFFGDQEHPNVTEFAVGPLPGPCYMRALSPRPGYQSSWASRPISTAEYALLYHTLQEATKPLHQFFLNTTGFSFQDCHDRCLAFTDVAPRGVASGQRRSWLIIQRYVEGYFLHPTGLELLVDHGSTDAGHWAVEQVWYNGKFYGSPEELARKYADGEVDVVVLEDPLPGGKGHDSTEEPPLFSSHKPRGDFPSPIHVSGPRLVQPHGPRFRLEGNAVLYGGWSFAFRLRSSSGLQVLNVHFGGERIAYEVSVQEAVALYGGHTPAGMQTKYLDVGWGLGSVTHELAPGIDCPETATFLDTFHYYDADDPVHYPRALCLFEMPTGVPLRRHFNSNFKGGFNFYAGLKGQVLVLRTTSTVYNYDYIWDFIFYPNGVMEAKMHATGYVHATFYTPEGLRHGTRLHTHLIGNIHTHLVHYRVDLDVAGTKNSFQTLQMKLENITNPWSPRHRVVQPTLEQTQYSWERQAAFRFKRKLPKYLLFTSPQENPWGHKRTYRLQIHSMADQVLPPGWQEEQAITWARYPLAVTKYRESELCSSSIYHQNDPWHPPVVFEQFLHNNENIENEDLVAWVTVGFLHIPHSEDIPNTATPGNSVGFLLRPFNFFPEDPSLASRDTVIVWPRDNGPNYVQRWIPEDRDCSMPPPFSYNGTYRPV
Method in brief: as §1

SMILES	IC50 (recombinant human VAP-1) [nM]	IC50 [1] [nM]	IC50 [2] [nM]	IC50 [3] [nM]
NCC(Cn1ncn(Cc2ccc(C#Cc3ccc4c(n3)OCCN4)s2)c1=O)=C(F)F [Example 168, 2-[2-(aminomethyl)-3,3-difluoro-allyl]-4-[[5-[2-(2,3-dihydro-1H-pyrido[2,3-b][1,4]oxazin-6-yl)ethynyl]-2-thienyl]methyl]-1,2,4-triazol-3-one Ditrifluoroacetate]	1	> 10000	45000	> 100000
NCC(Cn1ncn(Cc2ccc(C#Cc3cnc4c(c3)NC(=O)CO4)s2)c1=O)=C(F)F [Example 169, 7-[2-[5-[[1-[2-(aminomethyl)-3,3-difluoro-allyl]-5-oxo-1,2,4-triazol-4-yl]methyl]-2-thienyl]ethynyl]-1H-pyrido[2,3-b][1,4]oxazin-2-one Trifluoroacetate]	0.2	> 100000	> 100000	> 100000
NCC(Cn1ncn(Cc2ccc(C#Cc3cnc4c(c3)OCC(=O)N4)s2)c1=O)=C(F)F [Example 170, 7-[2-[5-[[1-[2-(aminomethyl)-3,3-difluoro-allyl]-5-oxo-1,2,4-triazol-4-yl]methyl]-2-thienyl]ethynyl]-4H-pyrido[3,2-b][1,4]oxazin-3-one Trifluoroacetate]	0.8	> 100000	14000	> 10000
Cn1cc(C#Cc2ccc(Cn3cnn(CC(CN)=C(F)F)c3=O)s2)cn1 [Example 171, 2-[2-(aminomethyl)-3,3-difluoro-allyl]-4-[[5-[2-(1-methylpyrazol-4-yl)ethynyl]-2-thienyl]methyl]-1,2,4-triazol-3-one Trifluoroacetate]	1.8	> 100000	50000	> 100000
NCC(Cn1ncn(CCc2cccs2)c1=O)=C(F)F [Example 172, 2-[2-(aminomethyl)-3,3-difluoro-allyl]-4-[2-(2-thienyl)ethyl]-1,2,4-triazol-3-one Trifluoroacetate]	13	> 100000	61000	> 100000
CS(=O)(=O)c1ccc(-c2ccc(CCn3cnn(CC(CN)=C(F)F)c3=O)s2)cc1 [Example 173, 2-[2-(aminomethyl)-3,3-difluoro-allyl]-4-[2-[5-(4-methylsulfonylphenyl)-2-thienyl]ethyl]-1,2,4-triazol-3-one trifluoroacetate]	0.3	> 100000	69000	260
NCC(Cn1ncn(CCc2ccc(-c3ccc(N4CCNCC4)cc3)s2)c1=O)=C(F)F [Example 174, 2-[2-(aminomethyl)-3,3-difluoro-allyl]-4-[2-[5-(4-piperazin-1-ylphenyl)-2-thienyl]ethyl]-1,2,4-triazol-3-one Ditrifluoroacetate]	1.3	> 100000	> 100000	29
NCC(Cn1ncn(CCc2ccc(-c3ccc(C(F)(F)F)nc3)s2)c1=O)=C(F)F [Example 175, 2-[2-(aminomethyl)-3,3-difluoro-allyl]-4-[2-[5-[6-(trifluoromethyl)-3-pyridyl]-2-thienyl]ethyl]-1,2,4-triazol-3-one Trifluoroacetate]	0.4	> 100000	14000	250

Second part, the molecule after the results:

IC50 (recombinant human VAP-1) [nM]	IC50 [1] [nM]	IC50 [2] [nM]	IC50 [3] [nM]	SMILES
0.5	> 100000	> 100000	1100	CN(C)c1ccc(-c2ccc(CCn3cnn(CC(CN)=C(F)F)c3=O)s2)cn1 [Example 176, 2-[2-(aminomethyl)-3,3-difluoro-allyl]-4-[2-[5-[6-(dimethylamino)-3-pyridyl]-2-thienyl]ethyl]-1,2,4-triazol-3-one Trifluoroacetate]
1.2	> 100000	700	2500	NCC(Cn1ncn(CCc2ccc(-c3ccc4c(c3)OCO4)s2)c1=O)=C(F)F [Example 177, 2-[2-(aminomethyl)-3,3-difluoro-allyl]-4-[2-[5-(1,3-benzodioxol-5-yl)-2-thienyl]ethyl]-1,2,4-triazol-3-one Trifluoroacetate]
0.6	> 100000	> 100000	350	Cc1cc(-c2ccc(CCn3cnn(CC(CN)=C(F)F)c3=O)s2)cc2c1NC(=O)CC2 [Example 178, 6-[5-[2-[1-[2-(aminomethyl)-3,3-difluoro-allyl]-5-oxo-1,2,4-triazol-4-yl]ethyl]-2-thienyl]-8-methyl-3,4-dihydro-1H-quinolin-2-one Trifluoroacetate]
0.3	> 100000	> 100000	290	CN1C(=O)CCc2cc(-c3ccc(CCn4cnn(CC(CN)=C(F)F)c4=O)s3)ccc21 [Example 179, 6-[5-[2-[1-[2-(aminomethyl)-3,3-difluoro-allyl]-5-oxo-1,2,4-triazol-4-yl]ethyl]-2-thienyl]-1-methyl-3,4-dihydroquinolin-2-one Trifluoroacetate]
0.6	> 100000	61000	1900	CCn1cc(-c2ccc(CCn3cnn(CC(CN)=C(F)F)c3=O)s2)cn1 [Example 180, 2-[2-(aminomethyl)-3,3-difluoro-allyl]-4-[2-[5-(1-ethylpyrazol-4-yl)-2-thienyl]ethyl]-1,2,4-triazol-3-one Trifluoroacetate]
